The values that follow are results of earlier work, collected in patent publication US11826492B2, “Intratumoral drug delivery materials and methods for treating breast cancer” (BIOTRONIK AG, priority 2016, dated 2023).

For this data set the following is noted: Porcine Coronary Arteries.

SMILES strings stand for the structures. Read-outs that look alike come from different tables or passages of the source.

On to `CO[C@H]1C[C@@H]2CC[C@@H](C)[C@@](O)(O2)C(=O)C(=O)N2CCCC[C@H]2C(=O)O[C@H]([C@H](C)C[C@@H]2CC[C@@H](OCCO)[C@H](OC)C2)CC(=O)[C@H](C)/C=C(\C)[C@@H](O)[C@@H](OC)C(=O)[C@H](C)C[C@H](C)/C=C/C=C/C=C/1C` [US 2014/0046254 Everolimus, Everolimus], for which the “Normalized Uptake (ng drug/mg tissue/μg drug on balloon)” value (3 days) was 0.02 ng/mg/µg.

`CO[C@H]1C[C@@H]2CC[C@@H](C)[C@@](O)(O2)C(=O)C(=O)N2CCCC[C@H]2C(=O)O[C@H]([C@H](C)C[C@@H]2CC[C@H](n3cnnn3)[C@H](OC)C2)CC(=O)[C@H](C)/C=C(\C)[C@@H](O)[C@@H](OC)C(=O)[C@H](C)C[C@H](C)/C=C/C=C/C=C/1C` [US 2014/0046254 Zotarolimus, Zotarolimus]: where the note is “7 days”, the “Normalized Uptake (ng drug/mg tissue/μg drug on balloon)” value is 0.04 ng/mg/µg.
